According to patent US5629011A, “Composition for nasal administration” (priority 1992, dated 1997):
Where “and” joins values, the source holds several entries; their conditions need not be identical. Identical values can stand only once.

How the values were obtained:
[1] = Pharmacokinetic parameters after nasal administration to sheep; conditions: for Vd: Apparent Volume of Distribution; for AUC at 5 h: Area Under Curve; for half-life: T1/2, nasal 0.15 mg/kg with 0.5% chitosan
Experimental: (§1) The chitosan concentration was 0.5%. The solution was administered into the sheep nostril using a simple spray pump device followed by serial blood sampling. […] Control experiments were conducted using i.v. dosage of the glucuronide.
(§2) Blood samples (10 ml) were taken at the following times.
(§3) The area under the curve (AUC) was calculated over 0-300 minutes using the linear trapezoidal method. […] Clearance was calculated by dividing the dose by the AUC, and the volume of distribution was calculated by dividing the clearance by the elimination rate constant. The bioavailability was calculated by dividing the mean AUC for nasal administration by the normalised mean AUC after intravenous administration.

in vivo = conditions: sheep
Experimental: as §1, §2
Plasma was separated by centrifugation soon after sampling and the plasma samples (approximately 5 ml) were stored at -80° C. prior to analysis.
Biomed. Appl. 230, 427. […] The limit of quantification of the method is 1 ng/ml for a 0.5 ml plasma sample and the assay is linear over the range of 1 to 1200 ng/ml drug concentration.

[2] = cited from earlier work; for unwanted side effects: metabolites compared with morphine, for morphine: therapeutic use
[3] = Pharmacokinetic parameters after intravenous administration to sheep; conditions: for Vd: Apparent Volume of Distibution; for AUC at 5 h: Area Under Curve; for half-life: T1/2, i.v. 0.015 mg/kg
Experimental: as §1, §2, §3

[4] = subcutaneous injection, rat; cited from earlier work
[5] = intracerebroventricular, mice; cited from earlier work
[6] = nasal 0.15 mg/kg with 0.5% chitosan, individual sheep IF, JF, KF, 0.15 mg/kg
[7] = 0.15 mg/kg, morphine-6-glucuronide concentration (plasma)
[8] = iv, 0.015 mg/kg, morphine-6-glucuronide concentration (plasma)
[9] = i.v. 0.015 mg/kg, individual sheep NF, OF, PF

CN1CC[C@]23c4c5ccc(O)c4O[C@H]2[C@@H](O[C@@H]2O[C@H](C(=O)O)[C@@H](O)[C@H](O)[C@H]2O)C=C[C@H]3[C@H]1C5 [morphine-6-glucuronide]
bioavailability ([1]; nasal 0.15 mg/kg with 0.5% chitosan, vs normalised mean i.v. AUC, individual sheep IF, JF, KF, 0.15 mg/kg): 37.3% and 26.6% | Area Under Curve ([1]; nasal 0.15 mg/kg with 0.5% chitosan, 0-300 min, individual sheep IF, JF, KF, 0.15 mg/kg, 300 min): 10631 ng·min/mL and 7581 ng·min/mL | Apparent Volume of Distribution ([1]; nasal 0.15 mg/kg with 0.5% chitosan, corrected for bioavailable dose, individual sheep IF, JF, KF, 0.15 mg/kg): 0.31 lkg^-1 | clearance ([1]; nasal 0.15 mg/kg with 0.5% chitosan, corrected for bioavailable dose, mean of 3 sheep): 5.3 mL/min/kg | Cmax [1, 6]: 165 ng/mL and 110 ng/mL | T1/2 [1, 6]: 41 min and 42 min | Tmax [1, 6]: 10 min | clearance ([1]; sheep, plasma, 0.15 mg/kg): 5.3 mL/min/kg | Vd ([1]; sheep, plasma, 0.15 mg/kg, nasal 0.15 mg/kg with 0.5% chitosan, corrected for bioavailable dose, individual sheep IF, JF, KF): 0.37 L/kg | Vd ([1]; sheep, plasma, 0.15 mg/kg, nasal 0.15 mg/kg with 0.5% chitosan, corrected for bioavailable dose, mean of 3 sheep): 0.33 L/kg | AUC at 5 h ([1]; sheep, plasma, 0.15 mg/kg, nasal 0.15 mg/kg with 0.5% chitosan, 0-300 min, individual sheep IF, JF, KF): 156 ng·h/mL | AUC at 5 h ([1]; sheep, plasma, 0.15 mg/kg, nasal 0.15 mg/kg with 0.5% chitosan, 0-300 min, mean of 3 sheep): 153 ng·h/mL | bioavailability ([1]; sheep, plasma, 0.15 mg/kg, Bioavailability, nasal 0.15 mg/kg with 0.5% chitosan, vs normalised mean i.v. AUC, individual sheep IF, JF, KF): 32.9% | Cmax ([1]; sheep, plasma, 0.15 mg/kg, Cmax, nasal 0.15 mg/kg with 0.5% chitosan, individual sheep IF, JF, KF): 121 ng/mL | Cmax ([1]; sheep, plasma, 0.15 mg/kg, Cmax, nasal 0.15 mg/kg with 0.5% chitosan, mean of 3 sheep): 132 ng/mL | half-life ([1]; sheep, plasma, 0.15 mg/kg, individual sheep IF, JF, KF): 51 min | half-life ([1]; sheep, plasma, 0.15 mg/kg, mean of 3 sheep): 45 min | Tmax ([1]; sheep, plasma, 0.15 mg/kg, Tmax, nasal 0.15 mg/kg with 0.5% chitosan, individual sheep IF, JF, KF): 15 min | Tmax ([1]; sheep, plasma, 0.15 mg/kg, Tmax, nasal 0.15 mg/kg with 0.5% chitosan, mean of 3 sheep): 13 min | bioavailability ([1]; sheep, plasma, 0.15 mg/kg, mean nasal bioavailability, nasal 0.15 mg/kg with 0.5% chitosan, vs i.v. AUC normalised to 0.15 mg/kg, mean, n=3): 32.3% | concentration at 10 min (in vivo; [7]): 89.1 ng/mL | concentration at 0.25 h (in vivo; [7]): 121 ng/mL | concentration at 20 min (in vivo; [7]): 102 ng/mL | concentration at 0.5 h (in vivo; [7]): 107 ng/mL | concentration at 0.75 h (in vivo; [7]): 108 ng/mL | concentration at 1 h (in vivo; [7]): 66.7 ng/mL | concentration at 1.5 h (in vivo; [7]): 41.1 ng/mL | concentration at 2 h (in vivo; [7]): 21.9 ng/mL | concentration at 3 h (in vivo; [7]): 10.2 ng/mL | concentration at 6 h (in vivo; [7]): < 1 ng/mL | morphine-6-glucuronide concentration (plasma) (in vivo; iv, 0.015 mg/kg, 2.5 h): 3.5 ng/mL | concentration at 2 min (in vivo; [8]): 43.8 ng/mL | concentration at 5 min (in vivo; [8]): 40.3 ng/mL | concentration at 10 min (in vivo; [8]): 36.1 ng/mL | concentration at 0.25 h (in vivo; [8]): 28.6 ng/mL | concentration at 20 min (in vivo; [8]): 23.2 ng/mL | concentration at 0.5 h (in vivo; [8]): 22.5 ng/mL | concentration at 1.5 h (in vivo; [8]): 9.4 ng/mL | concentration at 3 h (in vivo; [8]): 2 ng/mL | concentration at 4 h (in vivo; [8]): < 1 ng/mL | concentration at 5 h (in vivo; [8]): < 1 ng/mL | concentration at 6 h (in vivo; [8]): < 1 ng/mL | biological half-life compared with morphine [2]: may also have a longer biological half-life | unwanted side effects [2]: less likely to have the unwanted side effects | Area Under Curve ([3]; i.v. 0.015 mg/kg, 0-300 min, individual sheep NF, OF, PF, 300 min): 3819 ng·min/mL and 2560 ng·min/mL | Apparent Volume of Distibution [3, 9]: 0.30 lkg^-1 and 0.35 lkg^-1 | Cmax [3, 9]: 55 ng/mL and 50 ng/mL | T1/2 [3, 9]: 53 min and 42 min | Tmax [3, 9]: 2 min and 5 min | clearance [3, 9]: 3.9 mL/min/kg and 5.9 mL/min/kg | Vd ([3]; sheep, plasma, iv, 0.015 mg/kg, i.v. 0.015 mg/kg, individual sheep NF, OF, PF): 0.58 L/kg | Vd ([3]; sheep, plasma, iv, 0.015 mg/kg, i.v. 0.015 mg/kg, mean of 3 sheep): 0.41 L/kg | AUC at 5 h ([3]; sheep, plasma, iv, 0.015 mg/kg, i.v. 0.015 mg/kg, 0-300 min, individual sheep NF, OF, PF): 36.1 ng·h/mL | AUC at 5 h ([3]; sheep, plasma, iv, 0.015 mg/kg, i.v. 0.015 mg/kg, 0-300 min, mean of 3 sheep): 47.5 ng·h/mL | clearance ([3]; sheep, plasma, iv, 0.015 mg/kg, Clearance, i.v. 0.015 mg/kg, individual sheep NF, OF, PF): 6.9 mL/min/kg | clearance ([3]; sheep, plasma, iv, 0.015 mg/kg, Clearance, i.v. 0.015 mg/kg, mean of 3 sheep): 5.6 mL/min/kg | Cmax ([3]; sheep, plasma, iv, 0.015 mg/kg, Cmax, i.v. 0.015 mg/kg, individual sheep NF, OF, PF): 44 ng/mL | Cmax ([3]; sheep, plasma, iv, 0.015 mg/kg, Cmax, i.v. 0.015 mg/kg, mean of 3 sheep): 50 ng/mL | half-life ([3]; sheep, plasma, iv, 0.015 mg/kg, individual sheep NF, OF, PF): 58 min | half-life ([3]; sheep, plasma, iv, 0.015 mg/kg, mean of 3 sheep): 51 min | Tmax ([3]; sheep, plasma, iv, 0.015 mg/kg, Tmax, i.v. 0.015 mg/kg, mean of 3 sheep): 3 min

CN1CC[C@]23c4c5ccc(O)c4O[C@H]2[C@@H](OS(=O)(=O)O)C=C[C@H]3[C@H]1C5 [morphine-6-sulphate]
unwanted side effects [2]: less likely to have the unwanted side effects | antinociceptive activity [4]: potent antinociceptive activity | analgesic potency compared with morphine [5]: more potent analgesic than morphine
